Broadly, the IC50 is the midpoint of a concentration-inhibition curve.

Like-named read-outs stand apart in the source and are kept apart here.

Series [1] deals with T1, hERG channel (Homo sapiens (Human), UniProt Q12809).
For series [2], the target named is human NR1/NR2A (Homo sapiens (Human), UniProt Q05586+Q12879). The experiment in a line: NR2A antagonist activity, Fluo-4 calcium influx assay in HEK293 cells. Type of series: cell-based. The method, then:
(§1) Activation of the NR2A or NR2B subtype of NMDA receptor with glutamate as an agonist and glycine co-agonist on these cells results in calcium influx, which can be monitored with fluorescent indicator Fluo-4.
(§2) For experiments, the cells were seeded onto poly-D-lysine-coated 96-well black plates with clear bottom (Corning) at a density of ˜50,000 cells/well. After overnight culture, the growth medium was removed from the wells and the cells were incubated at 37° C. for 60 min in Hanks buffer containing 4 μM fluo-4-AM (Invitrogen) and 0.1% bovine serum albumin (BSA). After dye-loading, the cells were washed three times with Hanks buffer and incubated for 10 min at room temperature with various concentrations of test compounds prepared in Hanks buffer with 0.1% BSA. The cell plates were placed onto FDSS μCell fluorescence reader (Hamamatsu). After 20 sec reading of background fluorescence, agonist glutamate at final 100 μM and co-agonist glycine at final 50 μM were added to the cells to activate the receptor, and the resulting fluorescence changes were recorded and quantified. Based on the changes in fluorescence intensity, the pharmacological effect of test compounds were analyzed and the IC50 values derived from a non-linear least squares fitting of the concentration-dependent response to a standard logistic equation using Prism (Graphpad, Inc): Amplitude=Max Amplitude/(1+([…])^n).

The target of the next series is human NR1/NR2B (Homo sapiens (Human), UniProt Q05586+Q13224). Description: NR2B antagonist activity, Fluo-4 calcium influx assay in HEK293 cells. The following applies: hNR2B IC50, HEK293 cells expressing NR1/NR2B; glutamate 100 μM, glycine 50 μM. In kind it is cell-based. Here is the method: as §1, §2
Chain of human NR1/NR2B (Q13224 27-1484, other chains not shown): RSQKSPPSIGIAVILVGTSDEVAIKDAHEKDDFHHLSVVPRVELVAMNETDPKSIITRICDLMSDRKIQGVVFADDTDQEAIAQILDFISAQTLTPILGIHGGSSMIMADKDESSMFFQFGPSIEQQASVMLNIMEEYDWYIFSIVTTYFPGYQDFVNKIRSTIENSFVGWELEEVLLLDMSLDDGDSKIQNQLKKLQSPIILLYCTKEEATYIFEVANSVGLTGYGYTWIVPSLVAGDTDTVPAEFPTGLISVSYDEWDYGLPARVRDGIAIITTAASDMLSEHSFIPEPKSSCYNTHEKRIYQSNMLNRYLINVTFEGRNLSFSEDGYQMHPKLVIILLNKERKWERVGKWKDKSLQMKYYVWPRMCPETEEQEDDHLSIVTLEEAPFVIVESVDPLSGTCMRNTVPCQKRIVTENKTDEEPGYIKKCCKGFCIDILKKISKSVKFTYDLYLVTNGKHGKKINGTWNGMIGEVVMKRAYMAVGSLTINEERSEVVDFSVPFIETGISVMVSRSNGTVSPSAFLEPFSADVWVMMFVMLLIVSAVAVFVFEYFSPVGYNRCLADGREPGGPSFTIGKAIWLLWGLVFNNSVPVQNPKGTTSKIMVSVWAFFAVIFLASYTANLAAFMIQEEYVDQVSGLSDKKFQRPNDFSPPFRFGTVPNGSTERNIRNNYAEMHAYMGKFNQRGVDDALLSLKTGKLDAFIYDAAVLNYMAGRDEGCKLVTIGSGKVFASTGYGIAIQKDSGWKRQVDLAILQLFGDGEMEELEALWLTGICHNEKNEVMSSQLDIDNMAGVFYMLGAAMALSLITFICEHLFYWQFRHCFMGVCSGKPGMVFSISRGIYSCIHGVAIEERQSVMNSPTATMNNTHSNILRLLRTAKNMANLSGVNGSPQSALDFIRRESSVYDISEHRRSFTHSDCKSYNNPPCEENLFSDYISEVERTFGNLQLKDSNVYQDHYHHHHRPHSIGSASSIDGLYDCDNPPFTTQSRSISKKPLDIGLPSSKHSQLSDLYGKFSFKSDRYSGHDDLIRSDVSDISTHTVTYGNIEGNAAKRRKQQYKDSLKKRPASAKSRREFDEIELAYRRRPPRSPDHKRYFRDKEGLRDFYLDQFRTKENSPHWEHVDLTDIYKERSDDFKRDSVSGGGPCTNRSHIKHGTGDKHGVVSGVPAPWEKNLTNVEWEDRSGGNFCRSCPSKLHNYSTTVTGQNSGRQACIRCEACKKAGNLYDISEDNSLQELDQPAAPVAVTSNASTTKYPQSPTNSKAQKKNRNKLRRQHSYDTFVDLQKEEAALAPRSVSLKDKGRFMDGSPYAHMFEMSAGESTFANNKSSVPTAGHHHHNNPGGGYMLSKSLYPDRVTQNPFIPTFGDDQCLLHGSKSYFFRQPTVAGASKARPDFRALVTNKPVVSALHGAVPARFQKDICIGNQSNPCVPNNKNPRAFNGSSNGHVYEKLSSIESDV
The next series concerns the target CYP2D6 (Homo sapiens (Human), UniProt P10635). The experiment in a line: CYP P450 enzyme inhibition in pooled human liver microsome. The following applies: dextromethorphan 5 μM; for CYP2D6 @ 10 μM: inhibition at 10 μM, pooled HLM.
For series [3], the target named is human NR1/NR2A (Homo sapiens (Human), UniProt Q12879). The experiment in a line: NR2A antagonist activity, Fluo-4 calcium influx assay in HEK293 cells. Type of series: cell-based. As to conditions: read-out: hNR2A IC50; HEK293 cells expressing NR1/NR2A; glutamate 100 μM, glycine 50 μM. Here is the method: as §1, §2
Chain of human NR1/NR2A (Homo sapiens (Human), UniProt Q12879) (Q12879 23-1464, other chains not shown): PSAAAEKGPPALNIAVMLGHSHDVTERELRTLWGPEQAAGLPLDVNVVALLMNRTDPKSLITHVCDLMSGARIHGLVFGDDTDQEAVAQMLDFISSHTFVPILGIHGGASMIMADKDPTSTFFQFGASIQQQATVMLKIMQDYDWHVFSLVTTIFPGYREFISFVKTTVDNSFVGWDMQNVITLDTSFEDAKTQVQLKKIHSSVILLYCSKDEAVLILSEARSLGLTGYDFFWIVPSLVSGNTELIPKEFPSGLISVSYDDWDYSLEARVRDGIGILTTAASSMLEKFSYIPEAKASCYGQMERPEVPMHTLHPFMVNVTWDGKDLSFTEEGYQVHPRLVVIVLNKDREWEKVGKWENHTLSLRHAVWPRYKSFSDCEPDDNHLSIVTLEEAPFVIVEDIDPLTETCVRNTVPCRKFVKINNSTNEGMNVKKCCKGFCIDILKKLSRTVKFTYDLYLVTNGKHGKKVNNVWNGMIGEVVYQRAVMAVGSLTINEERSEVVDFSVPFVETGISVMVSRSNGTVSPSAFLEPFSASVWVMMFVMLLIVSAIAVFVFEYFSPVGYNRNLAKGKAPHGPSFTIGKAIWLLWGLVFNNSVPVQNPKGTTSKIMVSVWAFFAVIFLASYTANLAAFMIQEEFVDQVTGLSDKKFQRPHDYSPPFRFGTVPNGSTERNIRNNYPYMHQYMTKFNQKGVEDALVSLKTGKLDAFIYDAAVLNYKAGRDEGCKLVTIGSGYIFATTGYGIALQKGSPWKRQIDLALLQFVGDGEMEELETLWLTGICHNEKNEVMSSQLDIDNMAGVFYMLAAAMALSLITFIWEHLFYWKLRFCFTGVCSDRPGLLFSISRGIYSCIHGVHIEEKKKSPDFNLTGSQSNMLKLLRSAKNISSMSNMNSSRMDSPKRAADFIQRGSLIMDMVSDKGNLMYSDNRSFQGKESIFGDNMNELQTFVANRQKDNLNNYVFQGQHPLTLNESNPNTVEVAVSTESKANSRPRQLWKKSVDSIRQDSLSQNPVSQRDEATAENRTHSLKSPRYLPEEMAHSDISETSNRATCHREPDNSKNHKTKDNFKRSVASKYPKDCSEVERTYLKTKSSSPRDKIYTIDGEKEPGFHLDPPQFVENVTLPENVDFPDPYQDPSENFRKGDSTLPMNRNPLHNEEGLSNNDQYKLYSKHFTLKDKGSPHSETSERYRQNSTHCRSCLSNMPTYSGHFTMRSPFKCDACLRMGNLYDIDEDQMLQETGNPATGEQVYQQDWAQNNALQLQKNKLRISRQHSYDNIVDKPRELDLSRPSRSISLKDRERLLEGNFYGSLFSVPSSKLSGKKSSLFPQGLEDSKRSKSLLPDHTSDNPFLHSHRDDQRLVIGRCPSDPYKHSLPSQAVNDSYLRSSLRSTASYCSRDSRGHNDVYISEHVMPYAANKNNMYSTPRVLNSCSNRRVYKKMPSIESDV
Series [4] concerns the target T1, hERG channel. The experiment in a line: hERG channel inhibition, whole cell patch clamp in HEK293 cells. The following applies: for hERG @ 10 μM: inhibition at 10 μM. On the technique in general: hERG is a cardiac potassium channel; its block is linked to QT prolongation.
The subject of another series is mice. The experiment in a line: Forced swim test (FST). Type of series: in vivo. As to conditions: male mice, intraperitoneal; imipramine 32 mg/kg IP.

T1 sequence (Q12809 whole entry): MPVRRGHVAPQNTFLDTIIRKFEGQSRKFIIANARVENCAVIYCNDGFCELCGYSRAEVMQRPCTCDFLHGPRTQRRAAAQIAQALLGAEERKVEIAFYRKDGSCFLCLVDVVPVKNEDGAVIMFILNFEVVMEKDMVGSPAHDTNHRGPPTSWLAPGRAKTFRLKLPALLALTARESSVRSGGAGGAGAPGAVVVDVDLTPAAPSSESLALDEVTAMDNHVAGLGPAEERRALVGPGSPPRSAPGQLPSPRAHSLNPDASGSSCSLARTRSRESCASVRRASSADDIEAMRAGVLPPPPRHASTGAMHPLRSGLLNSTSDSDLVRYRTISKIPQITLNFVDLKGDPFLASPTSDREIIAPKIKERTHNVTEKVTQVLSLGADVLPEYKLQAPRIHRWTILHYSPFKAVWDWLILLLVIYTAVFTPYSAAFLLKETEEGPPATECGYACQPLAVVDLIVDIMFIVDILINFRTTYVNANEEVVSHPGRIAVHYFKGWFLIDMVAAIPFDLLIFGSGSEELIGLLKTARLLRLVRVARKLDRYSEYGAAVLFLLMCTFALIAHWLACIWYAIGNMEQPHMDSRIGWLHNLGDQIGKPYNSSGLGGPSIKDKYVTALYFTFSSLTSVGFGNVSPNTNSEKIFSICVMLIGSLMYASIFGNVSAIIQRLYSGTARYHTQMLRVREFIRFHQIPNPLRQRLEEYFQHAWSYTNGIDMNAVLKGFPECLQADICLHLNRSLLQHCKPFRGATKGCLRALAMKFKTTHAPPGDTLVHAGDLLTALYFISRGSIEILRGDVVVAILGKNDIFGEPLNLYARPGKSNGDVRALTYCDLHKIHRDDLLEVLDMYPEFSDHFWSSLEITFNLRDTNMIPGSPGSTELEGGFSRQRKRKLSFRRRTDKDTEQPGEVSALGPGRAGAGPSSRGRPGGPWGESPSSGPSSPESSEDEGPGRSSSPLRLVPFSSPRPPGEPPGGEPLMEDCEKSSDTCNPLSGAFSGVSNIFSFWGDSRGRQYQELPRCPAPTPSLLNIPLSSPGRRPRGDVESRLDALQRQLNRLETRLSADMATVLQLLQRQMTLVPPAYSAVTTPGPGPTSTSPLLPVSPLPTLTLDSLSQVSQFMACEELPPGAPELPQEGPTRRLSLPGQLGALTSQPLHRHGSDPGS
Chain of CYP2D6 (P10635 whole entry): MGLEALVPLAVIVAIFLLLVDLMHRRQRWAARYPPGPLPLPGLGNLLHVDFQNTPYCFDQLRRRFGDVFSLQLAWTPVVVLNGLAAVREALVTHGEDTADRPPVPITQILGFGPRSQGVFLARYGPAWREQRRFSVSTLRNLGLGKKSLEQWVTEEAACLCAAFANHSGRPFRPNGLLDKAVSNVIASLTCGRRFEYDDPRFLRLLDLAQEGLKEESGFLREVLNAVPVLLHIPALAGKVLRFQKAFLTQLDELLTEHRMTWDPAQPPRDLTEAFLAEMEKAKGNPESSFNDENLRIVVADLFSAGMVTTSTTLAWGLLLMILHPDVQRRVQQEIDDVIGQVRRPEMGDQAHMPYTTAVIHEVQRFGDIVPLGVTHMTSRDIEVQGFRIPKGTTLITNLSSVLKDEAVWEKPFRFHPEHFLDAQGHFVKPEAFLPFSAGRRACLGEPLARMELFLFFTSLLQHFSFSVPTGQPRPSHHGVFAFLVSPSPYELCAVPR
Procedure for CYP2D6: Those CYP isoforms and their corresponding probe substrates are as follows: CYP1A2 (phenacetin, 30 μM), CYP2C9 (tolutamide, 100 μM), CYP2C19 (S-mephenytoin, 40 μM), CYP2D6 (dextromethorphan, 5 μM) and CYP3A4 (midazolam, 1 μM). All probe substrates were used at concentrations near or below their Kms. For experiment, a reaction mixture of test compound at 10 uM or in serial dilution, CYP probe substrate described above and 0.2 mg/mL pooled HLM in phosphate buffer, pH 7.4 in a final volume of 200 μL was pre-incubated at 37° C. for 10 minutes in triplicate. The reaction was initiated by addition of NADPH at final concentration of 1 mM. The reaction was terminated after 10 minutes (CYP1A2, CYP2D6 and CYP3A4) or 30 minutes (CYP2C9 and CYP2C19) by addition of 100 μL ice-cold acetonitrile with internal standard (IS). The samples were then centrifuged at 13,000 rpm and the supernatants were injected to LC-MS/MS (Agilent Technologies) to quantify the concentration of the specific metabolites of the probe substrates formed by individual CYP450 isoforms. The inhibition ratio is calculated as: (Mt−M0)/Mwater×100% in which Mt and M0 represent the concentrations of the specific probe substrate metabolite, which was formed by individual CYP450 isoform, at the beginning and end of the reaction in the presence of test compound; while Mwater represents the concentration of the specific metabolite at the end of the reaction in the absence of test compound. Test compound concentration-dependent response data experiments performed in triplicate.
Procedure for mice: Procedure. Male mice (strain NLMN) weighing 25-35 g were used for testing. All animals were housed in a temperature (22-24° C.) and humidity (50-60%) controlled environment with free access to food and water on a 12-hour light-dark cycle. Test compounds were dissolved in 0.5% dimethylsulfoxide, 4% hydroxypropyl-β-cyclodextrin water to generate the appropriate dosing solution. Drugs were administered by intraperitoneal injection at a dose volume of 10 mL/kg. Testing was initiated 20-60 minutes after dosing. […] Mice were placed in a white plastic cylinder 20 cm high with a diameter of 21 cm containing 10 cm of water at 25±2° C. The mice were videotaped for 6 minutes, and the last 4 minutes of video were analyzed by a blinded observer off-line. The observer judged the animal to be immobile when it ceased all activity (struggling, swimming, jumping etc.) and floated passively atop the water. The amount of time each animal spent in the immobile state was recorded and used for statistical analysis of compound effect. Group differences were evaluated by student's t-test or one-way ANOVA followed by post-hoc Dunnett's test.

In the case of `CN(c1ncnc2[nH]ncc12)C1CCN(CCc2ccc(C(F)(F)F)cc2)CC1(F)F` (racemic) [C-1.33], the “hERG @ 10 μM” value on hERG channel [1] was found to be 59%. Moreover, the IC50 on human NR1/NR2A [2] is greater than 10 µM; on human NR1/NR2B it was 0.103 µM.

For the molecule `FC1(F)CN(CCc2ccc(Cl)cc2)CCC1Nc1ncnc2[nH]ncc12` (single isomer, unassigned) [E2-1.3, (S*)-N-(1-(4-chlorophenethyl)-3,3-difluoropiperidin-4-yl)-1H-pyrazolo[3,4-d]pyrimidin-4-amine], the “CYP2D6 @ 10 μM” value at CYP2D6 turned out to be 27.6%. In addition, the IC50 was greater than 10 µM at human NR1/NR2A [3] and 0.0317 µM at human NR1/NR2B. Further, the “hERG @ 10 μM” value on hERG channel [4] stood at 64%.

As for `FC(F)c1ccc(CCN2CCC(Nc3ncnc4[nH]ncc34)C(F)(F)C2)cc1` (single isomer, unassigned) [E2-1.6, (S*)-N-(1-(4-(difluoromethyl)phenethyl)-3,3-difluoropiperidin-4-yl)-1H-pyrazolo-[3,4-d]-pyrimidin-4-amine], the “CYP2D6 @ 10 μM” value on CYP2D6 was 37.1%. Also, the IC50 at human NR1/NR2A [3] was greater than 10 µM. Moreover, the “hERG @ 10 μM” value on hERG channel [4] is 70%.

As to `FC(F)(F)c1ccc(CCN2CCC(Nc3ncnc4[nH]ncc34)C(F)(F)C2)cc1` (single isomer, unassigned; (-)) [E2-1.5, (−)-(S*)-N-(3,3-difluoro-1-(4-(trifluoromethyl)phenethyl)piperidin-4-yl)-1H-pyrazolo[3,4-d]pyrimidin-4-amine], the IC50 is 15.2 µM against CYP2D6 (CYP2D6 IC50, pooled HLM); greater than 10 µM at human NR1/NR2A [3]; 7.6 µM against hERG channel [4] (hERG IC50). For the same molecule, the “CYP2D6 @ 10 μM” value at CYP2D6 was 37.9%.

As for `CN(C)CCCN1c2ccccc2CCc2ccccc21` [imipramine], the “antidepressant activity (immobility time)” value with mice is “showed the expected antidepressant activity”.

(Values after patent US10221182B2, “3,3-difluoro-piperidine derivatives as NR2B NMDA receptor antagonists” (Rugen Holdings (Cayman) Limited, priority 2015, dated 2019).)
